These results are taken from US8163771B2, “11 β-HSD1 modulators” (Exelixis, Inc., priority 2008, dated 2012).

Each structure is given as a SMILES string.

T1 sequence (P28845 whole entry): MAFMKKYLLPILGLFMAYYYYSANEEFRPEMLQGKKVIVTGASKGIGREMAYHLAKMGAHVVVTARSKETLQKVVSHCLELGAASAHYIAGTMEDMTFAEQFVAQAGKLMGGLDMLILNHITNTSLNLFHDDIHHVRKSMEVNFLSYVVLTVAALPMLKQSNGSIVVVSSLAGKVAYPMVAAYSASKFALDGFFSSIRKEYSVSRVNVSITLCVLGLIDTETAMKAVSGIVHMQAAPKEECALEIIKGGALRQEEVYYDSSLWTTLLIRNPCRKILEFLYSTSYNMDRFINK

The assay concerns the target T1, recombinant human 11 β-HSD1 (Homo sapiens, UniProt P28845).
T1 construct: made in house; host or cells: E. coli
As to the kind of experiment: 11 β-HSD1 SPA Assay (Scintillation Proximity Assay). The format is biochemical. Summed up: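 E. coli-expressed human enzyme (30-100 nM) with tritiated cortisone 40 nM and NADPH 1 mM in HEPES buffer pH7.4, 2 hours at room temperature. Stopped with protein A SPA beads carrying anti-cortisol antibody and glycyrrhetinic acid; counted after overnight incubation. IC50 from percent inhibition between no-enzyme and no-compound signals.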
A general note: SPA uses beads or plates that emit light when radiolabelled molecules are held near them.
Regarding `CC(C)(Oc1cc(CO)c(Cl)cc1Cl)C(=O)NC1CC2CCC(C1)N2c1ccc(C(=O)NCC(F)F)cn1` (stereo not drawn) [Example 428, 6-[3-endo-({2-[2,4-dichloro-5-(hydroxymethyl)phenoxy]-2-methylpropanoyl}amino)-8-azabicyclo[3.2.1]oct-8-yl]-N-(2,2-difluoroethyl)pyridine-3-carboxamide], the IC50 was less than 200 nM.
For the compound `Nc1ccc(N2[C@@H]3CC[C@H]2C[C@@H](NC(=O)C2(c4ccc(Cl)cc4)CC2)C3)nc1` [Example 61, N-[8-(5-aminopyridin-2-yl)-8-azabicyclo[3.2.1]oct-3-endo-yl]-1-(4-chlorophenyl)cyclopropanecarboxamide], the IC50 was less than 200 nM.
To `C[C@H](NC(=O)c1ccc(N2C3CCC2CC(NC(=O)C(C)(C)Oc2ccc(Cl)cc2C(F)(F)F)C3)nc1)C(F)(F)F` (stereo partly drawn) [Example 416, 6-[3-endo-({2-[4-chloro-2-(trifluoromethyl)phenoxy]-2-methylpropanoyl}amino)-8-azabicyclo[3.2.1]oct-8-yl]-N-[(2S)-1,1,1-trifluoropropan-2-yl]pyridine-3-carboxamide] belongs less than 200 nM.
To `CC(C)(Oc1ccc(F)c(F)c1)C(=O)N[C@H]1C[C@H]2CC[C@@H](C1)N2c1ccc(C(=O)NC2CC2)cn1` [Example 33, N-cyclopropyl-6-[3-endo-({2-[(3,4-difluorophenyl)oxy]-2-methylpropanoyl}amino)-8-azabicyclo[3.2.1]oct-8-yl]pyridine-3-carboxamide] belongs less than 200 nM; to `CCN(CC)CCNC(=O)c1ccc(N2[C@@H]3CC[C@H]2C[C@@H](NC(=O)C(C)(C)Oc2ccc(Cl)cc2Cl)C3)nc1` [Example 377, 6-(3-endo-{[2-(2,4-dichlorophenoxy)-2-methylpropanoyl]amino}-8-azabicyclo[3.2.1]oct-8-yl)-N-[2-(diethylamino)ethyl]pyridine-3-carboxamide], less than 200 nM.
To `CC(C)(Oc1ccc(Cl)cc1C(N)=O)C(=O)N[C@H]1C[C@H]2CC[C@@H](C1)N2c1ccc(C(=O)NCC(F)(F)F)cn1` [Example 360, 6-(3-endo-{[2-(2-carbamoyl-4-chlorophenoxy)-2-methylpropanoyl]amino}-8-azabicyclo[3.2.1]oct-8-yl)-N-(2,2,2-trifluoroethyl)pyridine-3-carboxamide] belongs less than 200 nM; to `CC(C)(C(=O)N[C@H]1C[C@H]2CC[C@@H](C1)N2c1ccc(C(=O)NCC(F)(F)F)cn1)c1ccc(Cl)cc1` [Example 26, 6-(3-endo-{[2-(4-chlorophenyl)-2-methylpropanoyl]amino}-8-azabicyclo[3.2.1]oct-8-yl)-N-(2,2,2-trifluoroethyl)pyridine-3-carboxamide], less than 200 nM.
Turning to `CC(C)(Oc1ccc(F)cc1F)C(=O)N[C@H]1C[C@H]2CC[C@@H](C1)N2c1ccc(S(N)(=O)=O)cn1` [Example 294, N-{8-[5-(aminosulfonyl)pyridin-2-yl]-8-azabicyclo[3.2.1]oct-3-endo-yl}-2-[(2,4-difluorophenyl)oxy]-2-methylpropanamide], the IC50 is less than 200 nM.
Turning to `CC(C)(Oc1ccc(Cl)cc1OC(F)(F)F)C(=O)N[C@H]1C[C@H]2CC[C@@H](C1)N2c1ccc(C(=O)NCC(F)F)cn1` [Example 401, 6-(3-endo-(2-(4-chloro-2-(trifluoromethoxy)phenoxy)-2-methylpropanamido)-8-azabicyclo[3.2.1]octan-8-yl)-N-(2,2-difluoroethyl)nicotinamide], the IC50 was less than 200 nM.
Next, `CC(C)(Oc1ccc(Cl)cc1Cl)C(=O)N[C@H]1C[C@H]2CC[C@@H](C1)N2c1ccc(S(C)(=O)=O)cn1` [Example 140, 2-[(2,4-dichlorophenyl)oxy]-2-methyl-N-{8-[5-(methylsulfonyl)pyridin-2-yl]-8-azabicyclo[3.2.1]oct-3-endo-yl}propanamide]: less than 200 nM.

For orientation: IC50 means the point on the concentration scale where inhibition reaches its midpoint.
